{"source": "patent US20210113659A1", "about": "“ENGINEERED THERAPEUTIC TO ENHANCE CYTOTOXIC ACTIVITY AND PHAGOCYTOSIS IN TUMOR ASSOCIATED MACROPHAGES” (University of Massachusetts, priority 2019, published 2021)", "tested_on": "4T1 cells or B16 F10 cells", "test": "Cytotoxic efficacy using MTS assay", "assay_type": "cell-based", "settings": "lower concentrations, 72 h", "method": "Cytotoxic Efficacy of DNTs Using MTS Assay: 5×10^3 4T1 cells or B16 F10 cells per well were seeded in a 96 well plate and left overnight to adhere. The cells were serum starved for 6 h by incubating them in serum free basal medium. The cells were incubated with either free drugs or DNTs of equivalent free drug concentrations for 72 h. The cells were washed with PBS and the medium was replaced with phenol red free DMEM followed by incubation in a mixture of MTS and PMS (1:20) solution for 30 min. Absorbance was measured at 480 nm using a BioTek plate reader. The data was analyzed using graph pad.", "data": [{"smiles": "CC1(N)CCN(c2cnc(-c3cccc(Cl)c3Cl)c(N)n2)CC1.Cl.Cl", "note": "[SHP099, 6-(4-Amino-4-methylpiperidin-1-yl)-3-(2,3-dichlorophenyl)pyrazin-2-amine dihydrochloride]", "values": [{"measurement": "effect on the viability of cancer cells", "value": "did not have a significant effect"}]}]}
